Measured values published in PMC4658560, “Assessment of pharmacokinetic compatibility of short acting CDRI candidate trioxane derivative, 99–411, with long acting prescription antimalarials, lumefantrine and piperaquine” (Scientific Reports, 2015).
Where two headings read alike, the source gives them in different places. Values belong to the compound of their own block, whether it stands above or below them.

Key:
[1] = Pharmacokinetic interaction study, oral administration alone or in combination in rats; type: in vivo, rat; details: for AUC(0-inf) / CL/F / Cmax / Tmax / Vd/F / half-life / AUC(0-t): rat, plasma, po
Method: Rats were divided into five groups (n = 5, each); three control groups (LUME 10 mg/kg, oral, suspension in 0.25% Sodium CMC; PPQ 50 mg/kg, oral, solution in triple distilled water; and 99–411 70 mg/kg, oral, suspension in 0.25% Sodium CMC) and two co-administration group (70 mg/kg of oral 99–411 & 10 mg/kg of oral LUME; and 70 mg/kg of oral 99–411 & 50 mg/kg of oral PPQ). The rats were fasted overnight (14–16 h) prior to the experiment but given free access to water. Blood samples were collected from the retro-orbital plexus into heparinized microfuge tubes at 0.25, 0.50, 1, 3, 6, 9, 11, 13, 15, 24, 48, 72 and 120 h post-dosing and plasma was harvested by centrifuging the blood at 15000 × g for 10 min and stored frozen at –70 ± 10 °C until bioanalysis. Plasma data were subjected to non-compartmental pharmacokinetics analysis using WinNonlin (version 5.1, Pharsight Corporation, Mountain View, USA). The pharmacokinetic parameters were compared using student’s t test. […] The relative bioavailability (RB%) was calculated according to equation 1 as follows: […]

[2] = In situ single-pass intestinal perfusion permeability study; type: in vivo; details: male, SD, rat, other: single-pass perfusion through the jejunal lumen, rat jejunum, read-out: effective permeability
Method: Single-pass intestinal perfusion studies in rats (n = 5 per group) were performed using established methods adapted from the literature. Briefly, male SD rats were fasted overnight for 12 to 16 h with free access to water and anaesthetized using an intra-peritoneal injection of urethane (1 g/kg) and placed on a heated pad to keep normal body temperature. Upon verification of the loss of pain reflex, a midline longitudinal abdominal incision was made, and the lumen of the jejunum (10 cm) was catherised and flushed with 10 ml of saline pre-warmed to 37 °C. The solution of analytes (10 μM) was prepared in perfusion buffer and passed at a flow rate of 0.2 mL/min through the lumen. After allowing 30 min to reach steady-state outlet concentrations, outlet perfusate samples were collected every 15 min for 120 min perfusion period. Phenol red was used as a marker of osmosis/zero permeability. At the end, the length of segment was measured without stretching and finally the animal was euthanized. Samples were analysed by LC-MS/MS after diluting 20 times with mobile phase.

[3] = Stability in rat plasma (autosampler, bench top, freeze/thaw, long-term freezer); type: in vitro ADME
Method: Validation was carried out as per US FDA bioanalytical method validation guidelines. The extraction recovery of analytes, through protein precipitation extraction procedure, was determined by comparing the peak areas of extracted plasma (pre-spiked) standard QC samples (n = 6) to those of the post-spiked standards at equivalent concentrations (QC low, QC medium and QC high concentrations for the analytes and 50 ng/mL for IS). Specificity and selectivity was studied by using independent plasma samples from six different rats to investigate the potential interferences at the LC peak region for analyte and IS, using the proposed extraction procedure and chromatographic–MS conditions. Matrix effect was determined by comparing the responses of the post-extracted plasma standard QC samples (n = 6) with the response of analytes from neat standard samples, for all analytes at LLOQ[22]. Calibration curve was constructed using […] calibration standards of LUME and 99–411 and of PPQ and 99–411 (3.9, 7.8, 15.6, 31.25, 62.5, 125, 250 and 500 ng/mL) by spiking 90 μL of pooled drug free rat plasma with the appropriate working standard solution of the analytes (10 μL). The intra-day assay precision and accuracy were estimated by analyzing six replicates at four the QC levels, i.e., 3.9/7.8, 10, 100 and 400 ng/mL,for both the combinations. The inter-assay precision was determined by analyzing the four levels QC samples on three different runs. The criteria for acceptability of the data included accuracy within ± 15% deviation from the nominal values and a precision of within ± 15% relative standard deviation (R.S.D.), except for LLOQ, where it should not exceed ± 20% of accuracy as well as precision. All stability studies were conducted at two concentration levels, i.e. […] The dilution integrity experiment was performed to validate the dilution test to be carried out on higher analyte concentrations (above the upper limit of quantification), which may be encountered during real subject samples analysis. Dilution integrity experiments were carried out by 20 times dilution of plasma samples containing 8000 ng/mL of LUME and 99–411 and PPQ and 99–411 with blank plasma to obtain samples containing 400 ng/mL of the respective combinations.

[4] = tested on: CYP3A4; set-up: method as in PMID 21503937, PMID 10727880, PMID 11463111; details: cited from earlier work
[5] = tested on: P-gp; details: cited from earlier work
[6] = target: T1, human P-gp (Homo sapiens, UniProt P08183); test: Human P-gp ATPase assay (vanadate-sensitive ATPase activity); type: biochemical; details: concentration not given
T1 construct: purchased BD Gentest (Woburn, MA)

[7] = 10 mg/kg, LUME 10 mg/kg oral alone (control), rats
[8] = 10 mg/kg, LUME 10 mg/kg oral co-administered with 99–411 70 mg/kg, rats
[9] = 50 mg/kg, PPQ 50 mg/kg oral alone (control), rats
[10] = PPQ 50 mg/kg oral co-administered with 99–411 70 mg/kg, rats

T1 sequence (P08183 whole entry): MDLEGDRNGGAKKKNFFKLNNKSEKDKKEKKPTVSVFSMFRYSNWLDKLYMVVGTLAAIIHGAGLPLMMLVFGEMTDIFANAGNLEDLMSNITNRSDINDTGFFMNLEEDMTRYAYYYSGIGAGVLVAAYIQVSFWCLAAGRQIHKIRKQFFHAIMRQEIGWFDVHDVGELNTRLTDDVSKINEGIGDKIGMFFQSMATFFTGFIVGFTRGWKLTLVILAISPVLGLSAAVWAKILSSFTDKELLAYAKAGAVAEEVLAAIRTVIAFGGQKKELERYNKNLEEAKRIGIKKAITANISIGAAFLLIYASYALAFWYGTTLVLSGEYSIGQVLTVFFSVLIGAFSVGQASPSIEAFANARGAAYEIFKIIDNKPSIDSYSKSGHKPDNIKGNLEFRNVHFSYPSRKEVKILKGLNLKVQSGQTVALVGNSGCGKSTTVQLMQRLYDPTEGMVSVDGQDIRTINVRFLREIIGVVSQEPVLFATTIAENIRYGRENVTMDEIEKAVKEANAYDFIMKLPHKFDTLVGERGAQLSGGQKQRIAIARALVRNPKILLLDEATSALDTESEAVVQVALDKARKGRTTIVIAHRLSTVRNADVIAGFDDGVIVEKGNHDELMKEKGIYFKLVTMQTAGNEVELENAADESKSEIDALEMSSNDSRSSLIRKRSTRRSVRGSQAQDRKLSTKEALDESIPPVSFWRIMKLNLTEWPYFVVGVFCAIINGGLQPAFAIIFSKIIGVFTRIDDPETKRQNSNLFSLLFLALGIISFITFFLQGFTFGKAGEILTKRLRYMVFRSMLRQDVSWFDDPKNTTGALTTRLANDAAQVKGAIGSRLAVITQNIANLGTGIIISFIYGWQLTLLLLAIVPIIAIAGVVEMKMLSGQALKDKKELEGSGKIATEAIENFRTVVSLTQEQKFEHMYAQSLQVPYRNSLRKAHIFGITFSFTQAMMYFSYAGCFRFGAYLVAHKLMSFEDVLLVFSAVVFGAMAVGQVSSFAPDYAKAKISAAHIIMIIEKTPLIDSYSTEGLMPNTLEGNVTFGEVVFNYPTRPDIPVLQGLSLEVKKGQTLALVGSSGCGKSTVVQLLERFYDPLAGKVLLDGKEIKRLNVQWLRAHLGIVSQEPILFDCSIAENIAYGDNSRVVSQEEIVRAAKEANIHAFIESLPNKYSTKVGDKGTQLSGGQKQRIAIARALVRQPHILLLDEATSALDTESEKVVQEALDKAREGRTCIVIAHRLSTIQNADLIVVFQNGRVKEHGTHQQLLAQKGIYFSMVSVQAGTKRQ

Compound: CCCCN(CCCC)CC(O)c1cc(Cl)cc2c1-c1ccc(Cl)cc1/C2=C/c1ccc(Cl)cc1 (centres unmarked) [LUME, lumefantrine]
AUC(0-inf) [1, 7]: 17400 ± 3290 ng·h/mL | CL/F [1, 7]: 9.83 mL/min/kg | Cmax [1, 7]: 1810 ± 750 ng/mL | Tmax [1, 7]: 3.75 ± 1.5 h | Vd/F [1, 7]: 39.4 ± 6.26 L/kg | half-life [1, 7]: 46.9 ± 6.52 h | AUC(0-t) ([1]; 10 mg/kg, LUME 10 mg/kg oral alone (control), rats n=5, mean ± SD): 16500 ± 2960 ng·h/mL | AUC(0-inf) [1, 8]: 16500 ± 3510 ng·h/mL | AUC(0-t) [1, 8]: 15400 ± 3580 ng·h/mL | CL/F [1, 8]: 10.5 mL/min/kg | Cmax [1, 8]: 1740 ± 670 ng/mL | Tmax [1, 8]: 3.6 ± 1.34 h | Vd/F [1, 8]: 46.4 ± 16.4 L/kg | half-life [1, 8]: 50.8 ± 10.2 h | Papp at 120 min, 10 μM ([2]; lumefantrine co-perfused with 99–411, 10 μM): 46.8 ± 13.7 ×10⁻⁶ cm/s | Papp at 120 min, 10 μM ([2]; lumefantrine control, 10 μM): 40.3 ± 4.9 ×10⁻⁶ cm/s | Accuracy (%) in stability test ([3]; LUME/99-411 method, 10 ng/mL, 6 h (BT, bench top, room temperature)): 91.73% | Accuracy (%) in stability test ([3]; LUME/99-411 method, 10 ng/mL, 24 h (AS, autosampler)): 98.45% | Accuracy (%) in stability test ([3]; LUME/99-411 method, 10 ng/mL, 15 day at -70 °C): 97.80% | Accuracy (%) in stability test ([3]; LUME/99-411 method, 10 ng/mL, FT-3 (three freeze/thaw cycles)): 91.33% | Accuracy (%) in stability test ([3]; LUME/99-411 method, 400 ng/mL, 6 h (BT, bench top, room temperature)): 95.94% | Accuracy (%) in stability test ([3]; LUME/99-411 method, 400 ng/mL, 24 h (AS, autosampler)): 100.13% | Accuracy (%) in stability test ([3]; LUME/99-411 method, 400 ng/mL, 15 day at -70 °C): 101.30% | Accuracy (%) in stability test ([3]; LUME/99-411 method, 400 ng/mL, FT-3 (three freeze/thaw cycles)): 100.96% | CYP3A4 substrate status [4]: CYP3A4 substrates | P-gp substrate status [5]: P-gp substrate

increase of Vd/F of PPQ with 99–411 co-administration ([1]; oral, rats): 194.49% | increase of clearance (Cl/F) of PPQ with 99–411 co-administration ([1]; oral, rats): 41.94% | decrease of AUC0-∞ of PPQ in presence of 99–411 ([1]; oral, rats, vs PPQ alone, p = 0.0018): 61.39% | decrease of Cmax of PPQ in presence of 99–411 ([1]; oral, rats, vs PPQ alone, p = 0.0154): 61.67% | AUC(0-inf) [1, 9]: 31500 ± 2680 ng·h/mL | CL/F [1, 9]: 26.7 mL/min/kg | Cmax [1, 9]: 890 ± 230 ng/mL | Tmax [1, 9]: 6.6 ± 1.34 h | Vd/F [1, 9]: 49 ± 8.38 L/kg | half-life [1, 9]: 21.4 ± 4.39 h | AUC(0-t) ([1]; 50 mg/kg, PPQ 50 mg/kg oral alone (control), rats n=5, mean ± SD): 28100 ± 2790 ng·h/mL | AUC(0-inf) [1, 10]: 19400 ± 5290 ng·h/mL | AUC(0-t) [1, 10]: 17000 ± 5030 ng·h/mL | CL/F [1, 10]: 45.5 mL/min/kg | Cmax [1, 10]: 540 ± 110 ng/mL | Tmax [1, 10]: 6 h | Vd/F [1, 10]: 166 ± 71.7 L/kg | half-life [1, 10]: 41.7 ± 11.8 h | Accuracy (%) in stability test ([3]; PPQ/99-411 method, 10 ng/mL, 6 h (BT, bench top, room temperature)): 99.31% | Accuracy (%) in stability test ([3]; PPQ/99-411 method, 10 ng/mL, 24 h (AS, autosampler)): 105.78% | Accuracy (%) in stability test ([3]; PPQ/99-411 method, 10 ng/mL, 15 days at -70 °C): 106.75% | Accuracy (%) in stability test ([3]; PPQ/99-411 method, 10 ng/mL, FT-3 (three freeze/thaw cycles)): 99.51% | Accuracy (%) in stability test ([3]; PPQ/99-411 method, 400 ng/mL, 6 h (BT, bench top, room temperature)): 102.13% | Accuracy (%) in stability test ([3]; PPQ/99-411 method, 400 ng/mL, 24 h (AS, autosampler)): 102.48% | Accuracy (%) in stability test ([3]; PPQ/99-411 method, 400 ng/mL, 15 days at -70 °C): 103.59% | Accuracy (%) in stability test ([3]; PPQ/99-411 method, 400 ng/mL, FT-3 (three freeze/thaw cycles)): 100.98%
Compound: Clc1ccc2c(N3CCN(CCCN4CCN(c5ccnc6cc(Cl)ccc56)CC4)CC3)ccnc2c1 [PPQ, piperaquine]

basal ATPase activity in the presence of the negative control [6]: 0.96
Compound: CC(C)NCC(O)COc1cccc2ccccc12 (centres unmarked) [propranolol]
